From patent publication US9723838B2, “Pyrazolyl amide compounds and uses thereof” (SHENYANG SINOCHEM AGROCHEMICALS R&D CO., LTD., priority 2013, dated 2017)
Where two headings read alike, the source gives them in different places.

Key:
diamondback moth = experiment: Test against diamondback moth (leaf disc spraying); type: in vivo; conditions: for mortality at 0.156 ppm / mortality at 0.313 ppm / mortality at 0.63 ppm / mortality at 10 ppm / mortality at 100 ppm: Plutella xylostella, foliar; for mortality at 10 ppm / mortality at 100 ppm: read-out: mortality against diamondback moth; for Mortality (%): parallel test
Description: The test method is spraying. The leaves of cabbage grown in greenhouse were chosen, removed the surface waxy layer and perforated to get 3 cm diameter leaf discs by the hole puncher. The test compounds were sprayed on both sides of the discs by Airbrush according to the designed concentration from low to high dose. The cabbage discs were placed in 6 cm diameter Petri dish with filter paper. Tentest insects (3 instar) were introduced on each treatment after drying. Each treatment set the pure water as CK. The treated discs were placed in a certain condition. After 72 h, the number of surviving insects was investigated and the mortality rates were calculated.

army worm = experiment: Test against army worm (corn leaf spraying); type: in vivo; conditions: for Mortality (%): parallel test
Protocol: The test method is spraying. The middle part of fresh corn leaves were chosen and cut into 3 cm sects. The test compounds were sprayed on both sides of the sects by Airbrush according to the designed concentration from low to high dose. The sects were placed in 6 cm diameter Petri dish with filter paper. Ten test insects (3 instar) were introduced on each treatment after drying. Each treatment set the pure water as CK. The treated sects were placed in a certain condition. After 72 h, the number of surviving insects was investigated and the mortality rates were calculated.

green peach aphid = experiment: Test against green peach aphid (spraying); type: in vivo; conditions: for mortality at 2.5 ppm / mortality at 5 ppm / mortality at 10 ppm / mortality at 100 ppm / mortality at 600 ppm: Myzus persicae; for mortality at 100 ppm / mortality at 600 ppm: read-out: mortality against green peach aphid; for Mortality (%): parallel test
Protocol: According to the solubility of test compounds, the compounds are dissolved in acetone or dimethyl sulfoxide, and then diluted with 0.1% aqueous solution of Tween 80 to form the test liquid 50 ml, the content of acetone or dimethyl sulfoxide in the total solution is not more than 10%.
The 6 cm diameter Petri dish with a layer of filter paper was chosen, a moderate amount of water was added to preserve moisture. A suitable piece of cabbage leaf with 30-50 green peach aphids was excised from a culture plant. Remove the winged and positive aphids, the leaf was placed to the Petri dish above with back upward. The test compounds were sprayed on both sides of the leaf by Airbrush (spray pressure: 10 psi, equate to 0.7 kg/cm^2; spray volume: 0.5 mL; spray distance: 15-20 cm). The treated Petri dishes were placed in a chamber of 23-25° C., 40%-60% relative humidity, L/D 13 h: 11 h. To keep the leaf fresh, a moderate amount of water was added to the Petri dish during the observation. After 48 h, the number of surviving insects was investigated and the mortality rates were calculated.

black bean aphid = experiment: Test of absorption activity (horsebean seedling, solution poured into cup); type: in vivo; conditions: Aphis fabae, after 48 h; for mortality at 0.625 µg/mL: 0.625 mg/L; for mortality at 2.5 µg/mL: 2.5 mg/L; for mortality at 10 µg/mL: 10 mg/L
Protocol: The 3 cm horsebean seedling that pre-infested by a certain number of black bean aphids (2 days instar) was chosen and transplanted to a paper cup loaded with fine sand. According to the test, the test compounds were treated to a solution and poured into the cup. After 48 h, the number of surviving insects was investigated and the mortality rates were calculated.

apple tree aphids = experiment: Field test against apple tree aphids; type: in vivo; conditions: for mortality at 25 µg/mL: dose 25 mg/L; for mortality at 50 µg/mL: dose 50 mg/L
Protocol: The test was carried out in the institute of pomology of CAAS orchard in June 2014, using starkrimson as the test sample, the apple tree aphids were in preliminary stage. The test method is spraying using the stretcher power sprayer (ZL-22-160), each treatment repeated 4 times. The number of initial aphids was investigated before spraying. After 2 days, 7 days, 14 days, the number of surviving aphids was investigated respectively and the control efficiency were calculated. 10% Cyantraniliprole SC was commercial available which was bought from DuPont Agricultural Chemicals Ltd., Shanghai.

cabbage aphids = experiment: Field test against cabbage aphids; type: in vivo
Protocol: The test was carried out in the institute of Vegetables and Flowers Chinese Academy of Agriculture Sciences Nankou base, using cabbages (JINGFENG) as the test plant. The test compounds dosage were 15 g a.i./hm^2 and 10% Cyantraniliprole SC dosage was 30 g a.i./hm^2 which were sprayed evenly to the whole plant using backpack manual sprayer (“MATABI” SUPER GREEN 16) at the spray volume of 750 L/hm^2. Each treatment repeated 4 times, arranged with randomized blocks. 5 spots were chosen from each area using diagonal method, each spot contains 2 cabbages, the 10 cabbages above were investigated in the area. The number of initial cabbage aphids was investigated before spraying. After 1 day, 3 days, 7 days, 14 days, the number of surviving aphids was investigated respectively and the control efficiency were calculated. decline ratio of insect (%)=(insect number before pesticide application−insect number after pesticide application)/(insect number before pesticide application)×100% control efficiency (%)=(treatment area decline ratio of insect−CK area decline ratio of insect)/(100−CK area decline ratio of insect)×100% Calculation Method:
10% Cyantraniliprole SC was bought from DuPont Agricultural Chemicals Ltd., Shanghai.

diamond back moth = conditions: disclosed in CN1653051A; cited from earlier work
armyworm = conditions: disclosed in CN1653051A; cited from earlier work
[1] = 72 h, read-out: mortality against army worm
[2] = 10 ppm, spraying, after 72 h, read-out: mortality against army worm
[3] = 100 ppm, spraying, after 72 h, read-out: mortality against army worm

| SMILES | mortality at 0.156 ppm (diamondback moth; 72 h) | mortality at 0.313 ppm (diamondback moth; 72 h) | mortality at 0.63 ppm (diamondback moth; 72 h) | mortality at 10 ppm (diamondback moth; 72 h) | mortality at 100 ppm (diamondback moth; 72 h) | mortality at 2.5 ppm (army worm; 72 h) | mortality at 5 ppm (army worm; 72 h) | mortality at 10 ppm (army worm; 72 h) | mortality at 100 ppm (army worm; [1]) | mortality at 2.5 ppm (green peach aphid; 48 h) | mortality at 5 ppm (green peach aphid; 48 h) | mortality at 10 ppm (green peach aphid; 48 h) | mortality at 100 ppm (green peach aphid; 48 h) | mortality at 600 ppm (green peach aphid; 48 h) | mortality at 0.625 µg/mL (black bean aphid) | mortality at 2.5 µg/mL (black bean aphid) | mortality at 10 µg/mL (black bean aphid) | mortality at 10 ppm (diamondback moth; 10 ppm, spraying, after 72 h) | mortality at 100 ppm (diamondback moth; 100 ppm, spraying, after 72 h) | mortality at 10 ppm (army worm; [2]) | further results |
| --- | --- | --- | --- | --- | --- | --- | --- | --- | --- | --- | --- | --- | --- | --- | --- | --- | --- | --- | --- | --- | --- |
| CC(C)(NC(=O)c1cc(Cl)cc(Cl)c1NC(=O)c1cc(Cl)nn1-c1ncccc1Cl)C(N)=O [Compound 1.3] | 87.5% | 100% | 100% | ≥ 80% | ≥ 80% | 64.3% | 81.2% | 100% | ≥ 80% | 100% | 100% | 100% | ≥ 80% | ≥ 80% | 100% | 100% | 100% |  |  |  | mortality at 10 ppm (army worm; [1]): ≥ 80%; mortality at 25 µg/mL (apple tree aphids; 48 h, 2 day): 78.9%; mortality at 50 µg/mL (apple tree aphids; 48 h, 2 day): 83.5%; mortality at 25 µg/mL (apple tree aphids; 168 h, 7 day): 93.5%; mortality at 50 µg/mL (apple tree aphids; 168 h, 7 day): 96.1%; mortality at 25 µg/mL (apple tree aphids; 336 h, 14 day): 93.1%; mortality at 50 µg/mL (apple tree aphids; 336 h, 14 day): 96.7%; Mortality (%) (cabbage aphids; dose 15 g a.i./hm^2, 1 d): 80.78 c %; Mortality (%) (cabbage aphids; dose 15 g a.i./hm^2, 3 d): 87.22 b %; Mortality (%) (cabbage aphids; dose 15 g a.i./hm^2, 7 d): 92.57 ab %; Mortality (%) (cabbage aphids; dose 15 g a.i./hm^2, 14 d): 91.77 ab % |
| CC(C)(NC(=O)c1cc(Cl)cc(Cl)c1NC(=O)c1cc(Br)nn1-c1ncccc1Cl)C(N)=O [Compound 1.4] | 100% | 100% | 100% | ≥ 80% | ≥ 80% | 50% | 86.6% | 92.8% | ≥ 80% | 90.1% | 100% | 100% | ≥ 80% | ≥ 80% | 100% | 100% | 100% |  |  |  | mortality at 10 ppm (army worm; [1]): ≥ 80%; Mortality (%) (cabbage aphids; dose 15 g a.i./hm^2, 1 d): 84.40 abc %; Mortality (%) (cabbage aphids; dose 15 g a.i./hm^2, 3 d): 91.03 ab %; Mortality (%) (cabbage aphids; dose 15 g a.i./hm^2, 7 d): 95.58 ab %; Mortality (%) (cabbage aphids; dose 15 g a.i./hm^2, 14 d): 91.79 ab % |
| CC(C)(NC(=O)c1cc(F)cc(Cl)c1NC(=O)c1cc(Br)nn1-c1ncccc1Cl)C(N)=O [Compound 1.8] |  |  |  |  |  |  |  |  |  |  |  |  |  |  |  |  |  |  |  |  | Mortality (%) (diamondback moth; 0.156 ppm, after 72 h): 52.1%; Mortality (%) (diamondback moth; 0.313 ppm, after 72 h): 75%; Mortality (%) (diamondback moth; 0.63 ppm, after 72 h): 100%; Mortality (%) (army worm; 2.5 ppm, after 72 h): 43.7%; Mortality (%) (army worm; 5 ppm, after 72 h): 50.0%; Mortality (%) (army worm; 10 ppm, after 72 h): 100%; Mortality (%) (green peach aphid; 2.5 ppm, after 48 h): 89.3%; Mortality (%) (green peach aphid; 5 ppm, after 48 h): 100.0%; Mortality (%) (green peach aphid; 10 ppm, after 48 h): 100.0% |
| CC(C)(NC(=O)c1cc(Br)cc(Br)c1NC(=O)c1cc(Br)nn1-c1ncccc1Cl)C(N)=O [Compound 1.10] | 62.5% | 81.3% | 100% | ≥ 80% | ≥ 80% | 62.5% | 87.5% | 100% | ≥ 80% | 100% | 100% | 100% | ≥ 80% | ≥ 80% |  |  |  |  |  |  |  |
| CC1(C)N=C(c2cc(Cl)cc(Cl)c2NC(=O)c2cc(Cl)nn2-c2ncccc2Cl)NC1=O [Compound 1.20] |  |  |  |  |  |  |  |  |  |  |  |  |  |  |  |  |  | ≥ 80% | ≥ 80% | ≥ 80% | mortality at 100 ppm (army worm; [3]): ≥ 80%; mortality at 100 ppm (green peach aphid; 100 ppm, spraying, after 48 h): ≥ 80%; mortality at 600 ppm (green peach aphid; 600 ppm, spraying, after 48 h): ≥ 80% |
| CC1(C)N=C(c2cc(Cl)cc(Cl)c2NC(=O)c2cc(Br)nn2-c2ncccc2Cl)NC1=O [Compound 1.21] |  |  |  |  |  |  |  |  |  |  |  |  |  |  |  |  |  | ≥ 80% | ≥ 80% | ≥ 80% | mortality at 100 ppm (army worm; [3]): ≥ 80%; mortality at 600 ppm (green peach aphid; 600 ppm, spraying, after 48 h): ≥ 80% |
| CC1(C)N=C(c2cc(Br)cc(Br)c2NC(=O)c2cc(Br)nn2-c2ncccc2Cl)NC1=O [Compound 1.27] |  |  |  |  |  |  |  |  |  |  |  |  |  |  |  |  |  | ≥ 80% | ≥ 80% | ≥ 80% | mortality at 100 ppm (army worm; [3]): ≥ 80%; mortality at 100 ppm (green peach aphid; 100 ppm, spraying, after 48 h): ≥ 80%; mortality at 600 ppm (green peach aphid; 600 ppm, spraying, after 48 h): ≥ 80% |
| CNC(=O)c1cc(C#N)cc(C)c1NC(=O)c1cc(Br)nn1-c1ncccc1Cl [Cyantraniliprole, reference compound] |  |  |  |  |  |  |  |  |  |  |  |  |  |  | 30% | 54.6% | 100% |  |  |  |  |
| CC(NC(=O)c1cc(Br)cc(Br)c1NC(=O)c1cc(Br)nn1-c1ncccc1Cl)C(N)=O (centres unmarked) [KC1, reference compound] | 0% | 20% | 33.3% |  |  | 0% | 0% | 18% |  | 0% | 0% | 15.1% |  |  |  |  |  |  |  |  | insecticidal activity against diamond back moth (diamond back moth): high activity; insecticidal activity against armyworm (armyworm): high activity |
